We go through 36 compounds from US20250313535A1, “ALPHA 4 BETA 7 INTEGRIN MODULATORS AND USES THEREOF” (DICE MOLECULES SV, INC., priority 2022, published 2025).

By IC50 is commonly meant the concentration at which inhibition is half-maximal.

The structures appear in SMILES notation.

One assay deals with α4β7 integrin (Homo sapiens (Human), UniProt P13612+P26010). Kind of assay: Integrin Adhesion Assay: Protocol 4 (MAdCAM-coated plate, RPMI-8866 cells with stable LOF mutation of the ITGB1 gene). The conditions noted are these: Protocol 4; RPMI-8866 cells with LOF mutation of ITGB1, MAdCAM; read-out: Mean IC50 α4β7 KO. The assay is classed as cell-based. The protocol: Integrin Adhesion Assay Using Genetically Modified Cells Generating Stable Cell Lines with ITGB1 or ITGB7 Knockout (Protocol 4 and Protocol 5)
α4β7 integrin, sequence (P13612 34-1032): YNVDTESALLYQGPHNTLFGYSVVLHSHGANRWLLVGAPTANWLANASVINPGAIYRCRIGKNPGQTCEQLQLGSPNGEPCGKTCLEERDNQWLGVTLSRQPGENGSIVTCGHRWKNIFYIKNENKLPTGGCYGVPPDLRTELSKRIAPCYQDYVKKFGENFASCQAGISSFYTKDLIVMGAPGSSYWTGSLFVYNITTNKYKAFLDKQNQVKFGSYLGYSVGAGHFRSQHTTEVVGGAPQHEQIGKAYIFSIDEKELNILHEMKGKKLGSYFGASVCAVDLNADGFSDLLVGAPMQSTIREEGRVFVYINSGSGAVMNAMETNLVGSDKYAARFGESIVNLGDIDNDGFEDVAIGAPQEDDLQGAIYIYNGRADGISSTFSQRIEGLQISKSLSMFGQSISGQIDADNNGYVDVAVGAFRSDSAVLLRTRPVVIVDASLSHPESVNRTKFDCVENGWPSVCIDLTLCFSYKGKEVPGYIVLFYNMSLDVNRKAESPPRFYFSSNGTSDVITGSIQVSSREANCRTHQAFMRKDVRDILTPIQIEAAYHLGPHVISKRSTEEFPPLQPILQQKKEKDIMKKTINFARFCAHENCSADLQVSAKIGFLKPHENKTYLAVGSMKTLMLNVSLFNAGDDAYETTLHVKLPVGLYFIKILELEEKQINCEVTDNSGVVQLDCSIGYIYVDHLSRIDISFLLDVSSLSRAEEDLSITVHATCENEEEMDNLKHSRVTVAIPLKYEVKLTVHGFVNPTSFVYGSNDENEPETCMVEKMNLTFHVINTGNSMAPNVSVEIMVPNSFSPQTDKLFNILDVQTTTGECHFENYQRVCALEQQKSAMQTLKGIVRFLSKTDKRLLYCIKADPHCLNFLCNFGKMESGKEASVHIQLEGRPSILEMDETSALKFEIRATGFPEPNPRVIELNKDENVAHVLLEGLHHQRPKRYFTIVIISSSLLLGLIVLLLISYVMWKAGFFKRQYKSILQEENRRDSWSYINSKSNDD
α4β7 integrin, sequence (P26010 20-798): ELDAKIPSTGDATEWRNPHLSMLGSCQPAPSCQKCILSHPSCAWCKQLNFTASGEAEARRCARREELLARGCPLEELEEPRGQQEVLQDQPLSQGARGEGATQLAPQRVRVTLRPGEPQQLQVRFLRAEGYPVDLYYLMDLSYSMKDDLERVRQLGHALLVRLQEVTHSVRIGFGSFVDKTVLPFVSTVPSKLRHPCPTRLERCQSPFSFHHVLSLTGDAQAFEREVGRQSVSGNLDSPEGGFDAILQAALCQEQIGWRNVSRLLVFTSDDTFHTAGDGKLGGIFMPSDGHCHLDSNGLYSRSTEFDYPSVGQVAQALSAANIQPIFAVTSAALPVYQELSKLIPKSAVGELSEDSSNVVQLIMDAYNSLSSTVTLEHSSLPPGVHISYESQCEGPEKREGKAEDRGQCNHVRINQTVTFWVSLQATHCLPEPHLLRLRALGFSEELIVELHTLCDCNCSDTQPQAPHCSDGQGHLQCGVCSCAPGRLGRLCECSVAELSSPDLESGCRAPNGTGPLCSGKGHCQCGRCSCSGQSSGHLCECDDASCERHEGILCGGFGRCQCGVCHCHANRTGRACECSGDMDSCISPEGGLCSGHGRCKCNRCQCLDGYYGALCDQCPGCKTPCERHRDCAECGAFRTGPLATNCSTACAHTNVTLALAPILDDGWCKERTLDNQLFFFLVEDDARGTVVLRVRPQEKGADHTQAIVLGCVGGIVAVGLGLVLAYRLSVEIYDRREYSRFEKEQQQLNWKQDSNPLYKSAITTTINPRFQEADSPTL
To obtain subclones of the RPMI-8866 cell line (Sigma-Aldrich, St. Louis, MO) that were individually deficient in either integrin β1 or integrin β 7, CRISPR/Cas9 technology was employed (PMID: 30108345). Specifically, a Neon™ Transfection System System 10 μL Kit and the Neon™ Transfection device (both from ThermoFisher Scientific) were used.
The protocol was performed following the manufacturer instructions, described in https://www.thermofisher.com/document-connect/document-connect.html?url=https % 3A%2F%2F assets.thermofisher.com%2FTFS-Assets%2FLSG%2Fmanuals%2FMAN0017066_TrueCut Cas9_Protein_v2_UG.pdf, which is incorporated by reference herein in its entirety.
RPMI-8866 cells were transferred to a flask the day before transfection, at a confluence of 5×10^5 cells/mL. The cells were washed with PBS and resuspended in buffer R (Neon™ Transfection System, Invitrogen) to 2×10^5 cells/10 uL for each reaction. The TrueCut™ HiFi Cas9 Protein (1250 ng per reaction) was mixed with TrueGuide™ sgRNA (7.5 pmoles each/pool of 3 sequences, table 1) (ThermoFisher Scientific). This mix was combined with the RPMI-8866 cells and electroporated on the Neon system at 1700V/20 ms/1 pulse. Transfected cells were allowed to recover in 500 μL pre-warmed cRMPI media (RPMI-1640 media with 10% FBS, 100 U/ml Penicillin-Streptomycin) at 37° C., 5% CO2 for 24 hours. At that time, an extra 500 μL of pre-warmed cRMPI media was added, and cells were incubated for another 24 hours.
For flow cytometry analysis, 100 μL of the transfected cells were collected and stained with anti-itga4 (Clone: 9F10, PE, BD Pharmingen™), anti-itgb 1 (Clone: (TS2/16), Super Bright 436, eBioscience), anti-itgb7 (Clone: FIB504, Brilliant Violet 650, BD Pharmingen™) and viability dye (LIVE/DEAD™ Fixable Green Dead Cell Stain, Invitrogen™). An Attune NxT Flow Cytometer was used to analyze the CRISPR-transfected cells. The flow cytometry results were analyzed using FlowJo™ v10.8.1 Software (BD Life Sciences). Fluorescence minus one (FMO) controls were used to select appropriate gates for data analysis.
To generate an individual clones of cells deficient in either ITGB7 or ITGB1 by limiting dilution assay, the transfected cells were resuspended at 5 cells/mL and seeded in 384 well plates. Outgrowth of clones was monitored using a microscope, and 24 clones were transferred for expansion. Expression of either integrin was verified by flow cytometry in each of the clones. One clone of each integrin b7 or the integrin b1 knockout was chosen, expanded and aliquots were frozen in vapor phase liquid nitrogen.
Integrin Adhesion Assay: Protocol 4
MAdCAM (R&D Systems, 0.1 ug) was diluted in 50 μL PBS, added to each well of an opaque ELISA plate (Thermo), and incubated overnight at 4° C. Coated plates were washed once with PBS and then blocked with 200 μL of assay buffer (10 mM HEPES, 150 mM NaCl, 1 mM MnCl2, 0.1 mM CaCl2), 1% BSA) for 1 hour at 37° C. and 5% CO2. After incubation, buffer was aspirated from the plates and 50 μL of fresh assay buffer was added. Compounds were added using a compounds dispenser (Tecan), and DMSO concentration was normalized to 1% across each plate. 50 μL of RPMI-8866 cells with a stable loss of function (LOF) mutation of the ITGB1 gene (2×10^6 per mL) were added to each well and the plates were incubated for 1 hour at 37° C. at a CO2 concentration of 5%. After incubation, plates were allowed to cool to RT for 10 minutes before being washed four times in assay buffer by an automated plate washer (BioTek). After washing, 100 μL of a 1:1 mixture of assay buffer and CellTiter GLO 2.0 reagent (Promega) were added to each well. Plates were mixed for 2 minutes at 1000 rpm and then allowed to incubate an additional 10 minutes before reading out luminescence on a Tecan Spark plate reader. […]
As to `CC1(C)CCN(Cc2cnc(-c3cccc4c(C[C@H](NC(=O)C5(C(F)(F)F)CCN(C6COC6)CC5)C(=O)O)cccc34)c3ccccc23)CC1` [Compound 686], the IC50 was < 10 nM.

On to `Cc1cccc(F)c1C(=O)N[C@@H](Cc1cccc2c(-c3cc(CN4CCCCC4)ccc3C(F)(F)F)cccc12)C(=O)O` [Compound 689], for which the IC50 was in the range of 10 to 100 nM.

Turning to `COc1cc2c(c(C(F)(F)F)c1-c1cccc3c(C[C@H](NC(=O)C4(C(F)(F)F)CCN(CC(F)(F)F)CC4)C(=O)O)cccc13)CN(C)CC2` [Compound 736], the IC50 is < 10 nM.

Turning to `O=C(O)[C@H](Cc1cccc2c(-c3nccc4ccc(CCCN5CCC6(CC5)CC6)cc34)cccc12)NC(=O)C1(C(F)(F)F)CCN(CC(F)(F)F)CC1` [Compound 743], the 50% inhibitory concentration (IC50) was < 10 nM.

`O=C(O)[C@H](Cc1cccc2c(-c3nccc4ccc(CCCN5CC6(CCC6)C5)cc34)cccc12)NC(=O)C1(C(F)(F)F)CCN(CC(F)(F)F)CC1` [Compound 745]: the IC50 was < 10 nM.

For `Cc1c(CN2CCCCC2)ccnc1-c1cccc2c(C[C@H](NC(=O)C3(C(F)(F)F)CCN(CC(F)(F)F)CC3)C(=O)O)cccc12` [Compound 747], the IC50 is 10 to 100 nM.

Regarding `CN1CCc2nc(-c3cccc4c(C[C@H](NC(=O)C5(C(F)(F)F)CCN(CC(F)(F)F)CC5)C(=O)O)cccc34)ccc2C1` [Compound 755], the IC50 is < 10 nM.

As for `Cc1cc(C2CCCN(C)C2)cnc1-c1cccc2c(C[C@H](NC(=O)C3(C(F)(F)F)CCN(CC(F)(F)F)CC3)C(=O)O)cccc12` (stereo partly drawn) [Compound 760], the IC50 was < 10 nM.

Regarding `O=C(O)[C@H](Cc1cccc2c(-c3nccc4ccc(CCCN5CCC6(CC5)CC6)cc34)cccc12)NC(=O)C1(C(F)(F)F)CCN(CC(F)F)CC1` [Compound 774], the IC50 was < 10 nM.

Turning to `O=C(O)[C@H](Cc1cccc2c(-c3ncc(CN4CC(F)C4)c4ccccc34)cccc12)NC(=O)C1(C(F)(F)F)CCN(CC(F)F)CC1` [Compound 877], the IC50 was < 10 nM.

In the case of `COc1cc(CN2CCC(C(F)(F)F)CC2)cnc1-c1cccc2c(C[C@H](NC(=O)C3(C(F)(F)F)CCN(CC(F)(F)F)CC3)C(=O)O)cccc12` [Compound 889], the IC50 was < 10 nM.

With `O=C(O)[C@H](Cc1cccc2c(-c3ncc(CN4CCCCC4)cc3C(F)(F)F)cccc12)NC(=O)C1(C(F)(F)F)CCN(CC(F)F)CC1` [Compound 897], the IC50 is < 10 nM.

With `Cc1cc(CN2CCN(C3CC3)CC2)cnc1-c1cccc2c(C[C@H](NC(=O)C3(C(F)(F)F)CCN(CC(F)F)CC3)C(=O)O)cccc12` [Compound 899], the IC50 is < 10 nM.

Take `O=C(O)[C@H](Cc1cccc2c(-c3ncc(CN4CCC(F)(F)CC4)c4ccccc34)cccc12)NC(=O)C1(C(F)(F)F)CCN(CC(F)F)CC1` [Compound 906]: the half-inhibitory concentration (IC50) is < 10 nM.

Turning to `COC1CN(Cc2cnc(-c3cccc4c(C[C@H](NC(=O)C5(C(F)(F)F)CCN(CC(F)F)CC5)C(=O)O)cccc34)c3ccccc23)C1` [Compound 913], the IC50 was < 10 nM.

On to `COc1ccc(CN2CCCCC2)cc1-c1cccc2c(C[C@H](NC(=O)C3(C(F)(F)F)CCN(CC(F)F)CC3)C(=O)O)cccc12` [Compound 937], for which the IC50 was < 10 nM.

Regarding `COc1ccc(CN2CCC(C(F)(F)F)CC2)cc1-c1cccc2c(C[C@H](NC(=O)C3(C(F)(F)F)CCN(CC(F)F)CC3)C(=O)O)cccc12` [Compound 938], the IC50 is < 10 nM.

For `COc1ccc(CN2CCC(C)(C)CC2)cc1-c1cccc2c(C[C@H](NC(=O)C3(C(F)(F)F)CCN(CC(F)(F)F)CC3)C(=O)O)cccc12` [Compound 941], the IC50 was < 10 nM.

As to `C[C@@H]1CN(CCc2cnc(-c3cccc4c(C[C@H](NC(=O)C5(C(F)(F)F)CCN(CC(F)(F)F)CC5)C(=O)O)cccc34)c3ccccc23)C[C@H](C)O1` [Compound 979], the IC50 is < 10 nM.

Consider `COc1c(CN(C)C)ccc(C)c1-c1cccc2c(C[C@H](NC(=O)c3c(C)cccc3F)C(=O)O)cccc12` [Compound 1010], for which the 50% inhibitory concentration (IC50) was < 10 nM.

Consider `COc1c(CN2CCCCC2)ccc(C(F)(F)F)c1-c1cccc2c(C[C@H](NC(=O)c3c(C)cccc3F)C(=O)O)cccc12` [Compound 1022], for which the IC50 fell in the range of 10 to 100 nM.

Turning to `Cn1c(=O)c(-c2cccc3c(C[C@H](NC(=O)C4(C)C[C@H]5CN(CC(F)(F)F)C[C@H]5C4)C(=O)O)cccc23)c(C(F)(F)F)c2ccccc21` (stereo partly drawn) [Compound 1047], the half-inhibitory concentration (IC50) lay in the range of 100 to 1000 nM.

Take `Cn1c(=O)c(-c2cccc3c(C[C@H](NC(=O)C4(C)C5CC4CN(CC(F)(F)F)C5)C(=O)O)cccc23)c(C(F)(F)F)c2ccccc21` (stereo partly drawn) [Compound 1048]: the half-inhibitory concentration (IC50) was 100 to 1000 nM.

On to `O=C(O)[C@H](Cc1cccc2c(-n3cccc(C(F)(F)F)c3=O)cccc12)NC(=O)C1(C(F)(F)F)CCN(CC(F)(F)F)CC1` [Compound 1055], for which the IC50 fell in the range of 100 to 1000 nM.

Still in this assay, the particulars now being: RPMI-8866 cells with stable LOF mutation of the ITGB1 gene; read-out: Mean IC50 α4β7 KO^a.
For `O=C(N[C@@H](Cc1cccc2c(-c3cccc4ccncc34)cccc12)C(=O)O)c1c(F)cccc1F` [Compound 295], the IC50 was > 1000 nM.

Take `Cn1c(=O)c(-c2cccc3c(C[C@H](NC(=O)C45CC(NCC(F)(F)F)(C4)C5)C(=O)O)cccc23)c(C(F)(F)F)c2ccccc21` [Compound 446]: the IC50 was > 1000 nM.

With `CO[C@H]1C[C@@H](c2cc(F)c(C(=O)N[C@@H](Cc3cccc4c(-c5c(C(F)(F)F)c6ccccc6n(C)c5=O)cccc34)C(=O)O)c(F)c2)N(C)C1` [Compound 466], the IC50 lay within 100 to 1000 nM.

As to `CO[C@H]1C[C@H](c2cc(F)c(C(=O)N[C@@H](Cc3cccc4c(-c5c(C(F)(F)F)c6ccccc6n(C)c5=O)cccc34)C(=O)O)c(F)c2)N(C)C1` [Compound 467], the half-inhibitory concentration (IC50) was in the range of 100 to 1000 nM.

`Cn1c(=O)c(-c2cccc3c(C[C@H](NC(=O)c4c(F)ccc(C5CC5)c4F)C(=O)O)cccc23)c(C(F)(F)F)c2ccccc21` [Compound 488]: the 50% inhibitory concentration (IC50) is 100 to 1000 nM.

With `CC1CC(C)(C(=O)N[C@@H](Cc2cccc3c(-c4c(C(F)(F)F)c5ccccc5n(C)c4=O)cccc23)C(=O)O)CCN1CC(F)(F)F` (stereo partly drawn) [Compound 528], the IC50 is > 1000 nM.

Consider `CC(C)CC1CC(C)(C(=O)N[C@@H](Cc2cccc3c(-c4c(C(F)(F)F)c5ccccc5n(C)c4=O)cccc23)C(=O)O)CCN1CC(F)(F)F` (stereo partly drawn) [Compound 529], for which the IC50 was > 1000 nM.

On to `COc1cccc(CN2CCCCC2)c1-c1cccc2c(C[C@H](NC(=O)c3c(F)cccc3C3CC3)C(=O)O)cccc12` [Compound 541], for which the IC50 was < 10 nM.

As for `COc1ccc(CN2CC3CCC(C2)O3)c(OC)c1-c1cccc2c(C[C@H](NC(=O)c3c(C)cccc3F)C(=O)O)cccc12` [Compound 568], the IC50 was 10 to 100 nM.

In the case of `CCCS(=O)(=O)N1CCC(C(=O)N[C@@H](Cc2cccc3c(-c4c(OC)ccc(CN5CCC(F)(F)CC5)c4OC)cccc23)C(=O)O)(C(F)(F)F)CC1` [Compound 617], the IC50 was 100 to 1000 nM.

With `COc1ccc(CN2CCCC(F)C2)c(OC)c1-c1cccc2c(C[C@H](NC(=O)c3c(C)cc(C45CCOCC4C5)cc3F)C(=O)O)cccc12` (stereo partly drawn) [Compound 663], the IC50 is < 10 nM.

With `O=C(N[C@@H](Cc1cccc2c(-c3ncc(CN4CCCCC4)c4ccccc34)cccc12)C(=O)O)c1c(F)cccc1F` [Compound 678], the IC50 lay within 10 to 100 nM.
